Experimental data: a melting point compilation (Tetko et al.; mined from patent text by program, amines drawn as free bases though some values may be those of a salt)

First: CCOC(=O)c1ccc2c(c1)c(-c1ccccc1)nn2CCC#N
Second: CCOC(=O)c1cnn(Cc2ccc(OCc3nc(-c4ccccc4)oc3C)cc2)c1
The melting point of the first is lower: 99 to 102 °C for the first, 108 to 109 °C for the second.

Compared with `Cc1nccn1CCCc1ccc(OCc2coc(/C=C/c3ccccc3)n2)cc1`, `O=C1NC(=O)C(Cc2ccc(OCCn3ccc4ccccc43)cc2)S1` (stereo unspecified) is lower in melting point: 93 to 94 °C for the first, 42.3 to 44.6 °C for the second.

First: O=[N+]([O-])c1cccc(Cc2nnn[nH]2)c1
Second: NCc1cccc(N)c1
The melting point of the first is higher: 140 °C for the first, 40 to 43 °C for the second.

First: COC(c1ccc(C)cc1)c1ccccc1Br (stereo unspecified)
Second: O=C(NC(CCCl)c1ccccc1Br)c1c(F)cccc1F (stereo unspecified)
The melting point of the first is lower: 98 to 99 °C for the first, 183 to 185 °C for the second.

First: O=C(O)c1ccc(-c2ccc(OCCCCO)c(-c3ccc(N4CCCC4)c(C(F)(F)F)c3)c2)cc1
Second: CCC(O)(c1ccc(OCCCN2CCN(C)CC2)cc1)c1cccc(C(F)(F)F)c1 (stereo unspecified)
The melting point of the first is higher: 237 °C for the first, 129 to 130 °C for the second.

First: COC(=O)c1ccc(Br)cc1COc1ccccc1
Second: COc1cc(NC(=S)Nc2ccccc2)ccn1
The melting point of the first is lower: 69.5 to 70.5 °C for the first, 138 to 141 °C for the second.

Compared with `COc1c2c(c(OC)c(OC)c1OC)CC(CCCCCCCCOC(C)=O)C2`, `CN(C)CCCCCOc1ccc2oc(-c3ccccc3)cc(=O)c2c1` is higher in melting point: 47 to 48 °C for the first, 82 to 83 °C for the second.

First: CC(C)(C)C(=O)Nc1cc(OCc2ccccc2)c(OCc2ccccc2)cc1N
Second: CCOc1noc(-c2ncn(C(c3ccccc3)(c3ccccc3)c3ccccc3)n2)c1C
The melting point of the first is lower: 115 °C for the first, 181 to 183 °C for the second.

Going from `Cc1ccnc(-c2cncc(OC3SCC(O)C(O)C3O)c2)c1` (stereo unspecified) to `CC(=O)Nc1nc(-c2ccc(O)cc2O)cs1`, the melting point rises from 166 °C to 264 °C.

First: CCCN(CCC)C(=O)C(CO)Nc1nc(-c2ccccc2)nc2c1CCCC2 (stereo unspecified)
Second: CC(C)n1nc(-c2c(-c3ccccc3)nn3ccc(OCC(=O)N4CCN(C(=O)N(C)C)CC4)cc23)ccc1=O
The melting point of the first is lower: 119 to 120 °C for the first, 151 to 152 °C for the second.

First: CCCc1c(OCC(O)CSc2ccc(C(=O)CCC(=O)O)cc2F)ccc(C(C)=O)c1O (stereo unspecified)
Second: COc1ccc(-c2ccc(=O)[nH]n2)c(OCC(O)CNC(C)(C)C)c1 (stereo unspecified)
The melting point of the first is lower: 106 to 109 °C for the first, 159 to 161 °C for the second.

First: CCN(CC)Nc1ccc(CN2OCC(C)(C)C2=O)c(Cl)c1
Second: Cn1nc(Cl)cc(Nc2ccn(C3CN(C(=O)OC(C)(C)C)C3)n2)c1=O
The melting point of the first is lower: 139 to 141 °C for the first, 154 to 156 °C for the second.

First: CC(C)NC(=O)NC(C)(C)C(=O)NCCO[N+](=O)[O-]
Second: Cc1cc(C)c(CCCC(C)(C)O)c(O)c1
The melting point of the first is lower: 120 to 122 °C for the first, 128 °C for the second.

First: CC(=O)N1CCC(Oc2ccc(C(F)(F)F)cc2)(c2ccccc2)CC1
Second: FC(F)(F)c1ccc(-c2nc(Cl)cc(-c3ccccc3)n2)cc1
The melting point of the first is higher: 96 to 100 °C for the first, 82 to 84 °C for the second.

Compared with `CCN(O)Cc1nnc2n1-c1ccc(Cl)cc1C(c1ccccc1)=NC2`, `O=C1Nc2ccccc2N(C(=O)CCN2CCCC2)c2ccc(Cl)cc21` is higher in melting point: 154 to 157 °C for the first, 167 to 169 °C for the second.

Compared with `O=c1c2c[nH]c3ccc(F)cc3c-2nn1-c1ncccn1`, `O=C1c2cc3nnn(Cc4ccccn4)c(=O)c3cc2OC2CCCN12` (stereo unspecified) is lower in melting point: over 350 °C for the first, 184 to 186 °C for the second.

Compared with `CC(=O)OC(=Cc1ccccc1)c1ccc(OC(C)=O)c(OC(C)=O)c1[N+](=O)[O-]`, `O=C1C=C(NC(=O)C(=O)c2cn(Cc3ccccc3[N+](=O)[O-])c3ccccc23)CO1` is higher in melting point: 119 to 121 °C for the first, 257 to 260 °C for the second.

Compared with `N#Cc1nn(-c2c(Cl)cc(C(F)(F)F)cc2Cl)c(Sc2ccccc2)c1SC(F)(F)F`, `COc1ccc(-c2csc(Nc3ccc(C(F)(F)F)cn3)n2)cc1OC` is higher in melting point: 84 to 86 °C for the first, 244 to 247 °C for the second.

Compared with `C[Si](C)(C)c1sc(C=O)cc1Oc1ccccc1`, `CCOC(=S)c1cnc(Cc2ccccc2)nc1N` is lower in melting point: 120 to 122 °C for the first, 117 to 118 °C for the second.

First: CCCc1nc2c(N)nc3cccnc3c2n1CCOCCON=C(C)C
Second: CCn1c(=O)c2ccccc2n2cnc(-c3nc(COC)no3)c12
The melting point of the first is lower: 127 to 128 °C for the first, 176 °C for the second.

First: CC(C)(C)c1cc(Nc2ccc(C=CC(=O)O)cc2)cc(C(C)(C)C)c1O
Second: COC(=O)c1ccc(-c2nc(-c3ccc(C(C)(C)C)cc3)no2)c(N)c1
The melting point of the first is higher: 199 to 200 °C for the first, 195 to 196 °C for the second.

Compared with `CC(COc1cccc2oc(C#N)cc(=O)c12)OC=O` (stereo unspecified), `O=C1Nc2ccccc2C1C(=O)c1ccoc1` (stereo unspecified) is higher in melting point: 113 to 115 °C for the first, 185 to 186 °C for the second.

First: CC1=C(O)C(=O)C(C)(CO)O1 (stereo unspecified)
Second: CCCc1c(O)c(O)c(C(=O)O)c2cc(C)c(C)cc12
The melting point of the first is lower: 124 to 125 °C for the first, 170 to 172 °C for the second.

First: CCCc1c(C(=O)NCc2ccc3c(Br)c(OCC#N)ccc3c2)cnn1-c1ccccc1
Second: CCNC(=O)Nc1ccc(-c2sc3c(c2CN(C)CCC(=O)NCCOC)c(=O)n(-c2ccccc2)c(=O)n3Cc2c(F)cccc2F)cc1
The melting point of the first is lower: 175 to 176 °C for the first, 240 to 244 °C for the second.

First: O=C(N[C@H]1CC[C@H](CCN2CCN(c3nccc4ccoc34)CC2)CC1)C1CCOCC1
Second: COc1cc2ncnc(N3CCN(C(=S)Nc4ccccn4)CC3)c2cc1OC
The melting point of the first is higher: 211 °C for the first, 208 to 210 °C for the second.

First: CCc1cnc2n1N=C(c1ccc(N)cc1)c1cc3c(cc1C2)OCO3
Second: CN(C)c1ccc(C=Cc2ccc(N)cc2)cc1
The melting point of the first is higher: 258 to 260 °C for the first, 168 °C for the second.

First: CCC(C)(CC)C(=O)O[C@H]1CCC=C2C=C[C@H](C)[C@H](CC[C@@H]3C[C@@H](O)CC(=O)O3)[C@H]21
Second: O=C(O)C(CCO)N1CCCC1=O (stereo unspecified)
The melting point of the first is lower: 61 to 64 °C for the first, 123 to 124 °C for the second.

Compared with `Cc1c(CC=CNC(=O)Nc2ccccc2)[nH]c(=O)c2c1ccc1nc(Nc3c(Cl)cccc3Cl)n(C)c12`, `COc1ccc(CSCCNC(=O)c2c(Cl)cccc2Cl)cc1` is lower in melting point: over 290 °C for the first, 80 to 81 °C for the second.

Compared with `O=C(N1CCc2ccccc2CC1)C(F)(F)F`, `CCC(Oc1ccc(-n2c(C)nc3cc(C(F)(F)F)ccc32)cc1)C(=O)O` (stereo unspecified) is higher in melting point: 73 to 74 °C for the first, 98 °C for the second.

First: O=c1ccc(C2(O)CCCCC2)c[nH]1
Second: CC1(O)NC(=O)OC12CCNCC2 (stereo unspecified)
The melting point of the first is higher: 194 to 196 °C for the first, 192 to 194 °C for the second.

Compared with `CCn1c(=O)c2[nH]c(/C=C/c3cc(OC)c4c(c3)OCO4)nc2n(CC)c1=O`, `CCOC(=O)c1cn(-c2nc(N)c(F)cc2F)c2c(F)c(F)c(F)c(F)c2c1=O` is lower in melting point: over 270 °C for the first, 223 to 230 °C for the second.

First: Cc1ccc(S(=O)(=O)Oc2c(-c3ccc(S(C)(=O)=O)cc3)cnn(-c3cccc(Cl)c3)c2=O)cc1
Second: CC1(C)Oc2ccc(S(=O)(=O)C(F)(F)F)cc2[C@@H](N2Cc3c(cccc3[N+](=O)[O-])C2=O)[C@@H]1O (relative stereo)
The melting point of the first is lower: 198 to 200 °C for the first, 292 to 295 °C for the second.

`CC(C)c1cccc(C(C)C)c1NC(=O)CN[C@H](C)c1ccccc1` and `O=C(Nc1ccc(CN2C(=O)C=C(CCO)Sc3ccccc32)cc1)c1ccccc1-c1ccccc1` cannot be ordered by melting point: 119 to 120 °C for the first, 116 to 120 °C for the second.

Compared with `Nc1cc(OC(=O)Oc2cc(N)c(F)cc2Cl)c(Cl)cc1F`, `CCOC(=O)Cc1sc(Sc2cc3ccccc3c(Cl)n2)nc1C` is lower in melting point: 136 to 137 °C for the first, 115 to 117 °C for the second.

Compared with `O=C(Cc1ccccc1N1CCCC1)N1C[C@@H]2SCCC(c3ccccc3)(c3ccccc3)[C@@H]2C1` (racemic), `CS(=O)c1ncc2ccc(=O)[nH]c2n1` (stereo unspecified) is higher in melting point: 166 °C for the first, 237 to 242 °C for the second.

`CCOC(=O)NC(=S)Nc1cc(Br)ccn1` showed a melting point of 107 to 110 °C.
